# Laboratory results taken from the supplement of paper PMC10307832.
# Key:
# Assay in all cases: relative viability (nuclei count vs DMSO), 5 days (fraction); higher = more cells survive
# [1] = compound: CC1=C(C(=O)N2C=CSC2=N1)CCN3CCC(=C(C4=CC=CC=C4)C5=CC=C(C=C5)F)CC3 + CC1(C)CCC(c2ccc(Cl)cc2)=C(CN2CCN(c3ccc(C(=O)NS(=O)(=O)c4ccc(N[C@H](CCN5CCOCC5)CSc5ccccc5)c(S(=O)(=O)C(F)(F)F)c4)cc3)CC2)C1 [Navitoclax] (partner 0.5 µM)
# How it was run: (§1)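 Relative viability equals treated-well nuclei counts divided by vehicle-well nuclei counts. Counts came from 4× images of lung cancer cell lines grown in 1536-well plates for 5 days after pin-tool dosing on the day after seeding. Dosing used one drug alone or a fixed anchor-drug dose plus five library-drug doses (not always all listed) in √10 steps, and values are medians of duplicate plates.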
# [2] = compound: CC1=C(C(=O)N2C=CSC2=N1)CCN3CCC(=C(C4=CC=CC=C4)C5=CC=C(C=C5)F)CC3 + C[C@]1(O)C[C@@H](c2nc(-c3ccc4ccc(-c5ccccc5)nc4c3)c3c(N)nccn32)C1 [Linsitinib] (partner 1 µM)
# How it was run: as §1
# [3] = compound: CC1=C(C(=O)N2C=CSC2=N1)CCN3CCC(=C(C4=CC=CC=C4)C5=CC=C(C=C5)F)CC3 + Nc1nc2[nH]cc(CCc3ccc(C(=O)N[C@@H](CCC(=O)O)C(=O)O)cc3)c2c(=O)[nH]1 [Pemetrexed] (partner 0.2 µM)
# How it was run: as §1
# [4] = compound: CC1=C(C(=O)N2C=CSC2=N1)CCN3CCC(=C(C4=CC=CC=C4)C5=CC=C(C=C5)F)CC3 + O=C(CCCCCCC(=O)Nc1ccccc1)NO [Vorinostat] (partner 1 µM)
# How it was run: as §1
Cell Line,relative viability ([1]; first compound 0.08 µM),relative viability ([1]; first compound 0.253 µM),relative viability ([1]; first compound 0.8 µM),relative viability ([1]; first compound 2.53 µM),relative viability ([1]; first compound 8 µM),relative viability ([2]; first compound 0.08 µM),relative viability ([2]; first compound 0.253 µM),relative viability ([2]; first compound 0.8 µM),relative viability ([2]; first compound 2.53 µM),relative viability ([2]; first compound 8 µM),relative viability ([3]; first compound 0.08 µM),relative viability ([3]; first compound 0.253 µM),relative viability ([3]; first compound 0.8 µM),relative viability ([3]; first compound 2.53 µM),relative viability ([3]; first compound 8 µM),relative viability ([4]; first compound 0.08 µM),relative viability ([4]; first compound 0.253 µM),relative viability ([4]; first compound 0.8 µM),relative viability ([4]; first compound 2.53 µM),relative viability ([4]; first compound 8 µM)
LK-2,0.741,0.962,1.11,1.05,0.703,0.548,0.531,0.846,0.502,0.529,0.243,0.286,0.285,0.281,0.181,0.266,0.233,0.333,0.319,0.199
LOU-NH91,0.625,0.663,0.758,0.698,0.604,0.923,0.932,1.01,1.02,0.821,0.303,0.3,0.438,0.387,0.346,0.973,0.832,0.856,0.948,0.776
LU99A,0.919,0.867,0.734,0.929,0.631,0.565,0.495,0.517,0.666,0.446,0.167,0.193,0.164,0.168,0.152,0.433,0.418,0.381,0.525,0.207
LXF-289,0.917,1.19,0.947,0.97,0.816,0.948,1.1,0.989,0.96,0.83,0.931,0.883,0.871,0.901,0.76,0.527,0.813,0.75,0.738,0.613
NCI-H23,0.722,0.862,0.776,0.863,0.489,0.525,0.762,0.616,0.676,0.339,0.698,0.55,0.585,0.804,0.516,0.665,0.564,0.473,0.572,0.32
NCI-H322M,0.987,1.29,1.34,1.36,0.889,0.808,0.924,0.926,1.01,0.702,0.686,0.622,0.555,0.706,0.683,0.898,0.845,0.862,0.953,0.943
NCI-H441,–,0.694,0.686,0.638,0.371,–,0.541,0.777,0.654,0.355,0.289,0.255,0.252,0.296,0.254,0.998,0.628,0.765,1.05,0.61
NCI-H460,0.787,0.957,1.55,1.56,0.0629,0.475,0.729,0.783,1.13,0.435,0.0657,0.059,0.0626,0.0637,0.0907,0.516,0.352,1.05,1.22,0.261
NCI-H520,1.04,0.939,1.21,1.35,0.701,1.13,0.723,0.902,0.943,0.768,0.726,0.566,0.691,0.778,0.477,0.729,0.751,0.743,0.962,0.489
NCI-H596,0.85,1.17,1.04,1.1,0.556,0.935,1.1,1.2,1.03,0.755,0.49,0.511,0.488,0.584,0.466,0.57,0.576,0.626,0.583,0.587
NCI-H647,1.12,1.13,1.11,1.2,0.476,1.1,0.895,1.16,1.86,0.846,0.185,0.149,0.185,0.166,0.184,0.681,0.574,0.603,0.514,0.333
NCI-H838,0.986,1.08,1.15,1.62,0.494,1.02,1.02,1.02,1.31,0.809,0.254,0.252,0.259,0.246,0.223,0.688,0.692,0.738,0.8,0.573
NCI-H1355,0.976,0.984,0.996,1.09,0.787,0.775,0.876,0.844,0.856,0.588,1.09,1.04,1.02,1.1,0.97,0.588,0.602,0.6,0.611,0.529
NCI-H1395,1.19,1.46,1.02,1.05,1.05,1.21,0.982,1.08,0.891,1.07,0.797,0.813,0.72,0.885,0.806,0.714,0.786,0.525,0.691,0.646
NCI-H1437,–,0.924,1.09,1.44,0.693,–,1.07,1.14,1.14,0.622,0.338,0.371,0.323,0.35,0.235,0.702,0.867,0.901,0.9,0.386
NCI-H1651,0.984,0.654,1.01,1.29,0.404,0.925,0.863,0.969,1.19,0.673,0.756,0.611,0.545,0.644,0.574,0.552,0.547,0.557,0.616,0.452

Cell Line,relative viability ([1]; first compound 0.08 µM),relative viability ([1]; first compound 0.253 µM),relative viability ([1]; first compound 0.8 µM),relative viability ([1]; first compound 2.53 µM),relative viability ([1]; first compound 8 µM),relative viability ([2]; first compound 0.08 µM),relative viability ([2]; first compound 0.253 µM),relative viability ([2]; first compound 0.8 µM),relative viability ([2]; first compound 2.53 µM),relative viability ([2]; first compound 8 µM),relative viability ([3]; first compound 0.08 µM),relative viability ([3]; first compound 0.253 µM),relative viability ([3]; first compound 0.8 µM),relative viability ([3]; first compound 2.53 µM),relative viability ([3]; first compound 8 µM),relative viability ([4]; first compound 0.08 µM),relative viability ([4]; first compound 0.253 µM),relative viability ([4]; first compound 0.8 µM),relative viability ([4]; first compound 2.53 µM),relative viability ([4]; first compound 8 µM)
NCI-H1666,0.991,0.854,1.04,1.16,0.836,0.86,0.734,0.768,0.886,0.621,0.838,0.853,0.884,0.89,0.754,1,0.911,1.11,1.09,0.891
NCI-H1734,0.732,0.818,0.966,0.795,0.493,0.766,0.825,0.948,1.1,0.429,0.487,0.452,0.391,0.424,0.399,0.881,0.652,0.734,0.86,0.747
NCI-H1755,0.932,1.02,1.1,1.02,0.56,1.04,0.98,0.973,0.981,0.779,0.456,0.437,0.41,0.405,0.38,0.704,0.71,0.789,0.759,0.571
NCI-H1793,0.376,0.512,0.395,0.507,0.374,0.74,0.819,1.09,0.834,0.437,0.72,0.715,0.796,1.12,0.794,0.599,0.988,0.577,0.891,0.535
NCI-H1915,0.741,0.691,0.832,0.807,0.725,1.16,1.12,1.07,1.18,0.832,0.576,0.44,0.493,0.517,0.44,0.554,0.584,0.538,0.524,0.383
NCI-H1944,1.03,0.916,1.02,1.06,1.06,1.3,1.16,1.07,1.21,1.23,0.626,0.663,0.596,0.591,0.499,0.442,0.502,0.499,0.54,0.377
NCI-H1975,1.08,1.02,1.17,1.26,0.573,0.984,0.817,0.982,0.908,0.519,0.292,0.265,0.312,0.291,0.236,0.761,0.748,0.748,0.774,0.492
NCI-H1993,0.954,–,1.12,1.05,0.917,0.763,–,0.67,0.713,0.89,0.617,0.622,0.645,0.671,0.468,0.87,0.715,0.885,0.92,0.756
NCI-H2009,1.15,1.14,1.18,1.22,1.09,1.29,1.29,1.19,1.16,1.12,1.04,1.1,1.04,1.12,0.938,0.71,0.715,0.728,0.778,0.556
NCI-H2023,0.99,0.894,0.997,1.08,1.09,0.63,0.598,0.718,0.723,0.582,0.288,0.199,0.239,0.333,0.246,0.657,0.56,0.648,0.695,0.399
NCI-H2085,1.12,1.1,1.21,1.1,0.908,1.1,0.92,1.02,1.06,0.7,0.966,0.964,0.759,0.955,0.883,0.85,0.827,0.758,0.807,0.707
NCI-H2087,1,0.712,0.995,1.23,0.794,1.06,0.9,0.852,1.12,0.745,0.634,0.686,0.595,0.682,0.599,0.865,0.591,0.859,0.625,0.485
NCI-H2126,0.835,0.839,0.846,0.971,0.799,0.712,0.729,0.801,0.797,0.716,0.587,0.758,0.713,0.721,0.511,0.794,0.852,0.784,0.802,0.631
NCI-H2228,0.693,0.914,0.811,0.838,0.623,0.769,0.803,0.672,0.706,0.445,0.406,0.37,0.375,0.362,0.278,0.474,0.557,0.636,0.599,0.337
NCI-H2347,0.313,0.739,0.89,0.663,0.552,0.921,0.958,0.977,0.932,0.804,0.398,0.482,0.441,0.454,0.409,0.538,0.603,0.573,0.579,0.453
NCI-H2405,0.892,0.968,1.08,0.962,0.705,0.999,1.14,1.1,0.862,0.744,1.11,–,1.07,1.08,0.758,1.18,–,1.08,1.06,0.789
